Bounds are passed on as bounds.

Here are results for 20 compounds from patent publication US20170334899A1, “AMINO-SUBSTITUTED ISOTHIAZOLES” (Bayer Pharma Aktiengesellschaft, priority 2014, published 2017).

The target in this assay is T1, human kinase Mps-1 (Homo sapiens, UniProt P33981).
T1 construct: N-terminally GST-tagged human full length recombinant Mps-1 kinase; GST (N); purchased Invitrogen, Karslruhe, Germany PV4071
T1 sequence (P33981 1-857): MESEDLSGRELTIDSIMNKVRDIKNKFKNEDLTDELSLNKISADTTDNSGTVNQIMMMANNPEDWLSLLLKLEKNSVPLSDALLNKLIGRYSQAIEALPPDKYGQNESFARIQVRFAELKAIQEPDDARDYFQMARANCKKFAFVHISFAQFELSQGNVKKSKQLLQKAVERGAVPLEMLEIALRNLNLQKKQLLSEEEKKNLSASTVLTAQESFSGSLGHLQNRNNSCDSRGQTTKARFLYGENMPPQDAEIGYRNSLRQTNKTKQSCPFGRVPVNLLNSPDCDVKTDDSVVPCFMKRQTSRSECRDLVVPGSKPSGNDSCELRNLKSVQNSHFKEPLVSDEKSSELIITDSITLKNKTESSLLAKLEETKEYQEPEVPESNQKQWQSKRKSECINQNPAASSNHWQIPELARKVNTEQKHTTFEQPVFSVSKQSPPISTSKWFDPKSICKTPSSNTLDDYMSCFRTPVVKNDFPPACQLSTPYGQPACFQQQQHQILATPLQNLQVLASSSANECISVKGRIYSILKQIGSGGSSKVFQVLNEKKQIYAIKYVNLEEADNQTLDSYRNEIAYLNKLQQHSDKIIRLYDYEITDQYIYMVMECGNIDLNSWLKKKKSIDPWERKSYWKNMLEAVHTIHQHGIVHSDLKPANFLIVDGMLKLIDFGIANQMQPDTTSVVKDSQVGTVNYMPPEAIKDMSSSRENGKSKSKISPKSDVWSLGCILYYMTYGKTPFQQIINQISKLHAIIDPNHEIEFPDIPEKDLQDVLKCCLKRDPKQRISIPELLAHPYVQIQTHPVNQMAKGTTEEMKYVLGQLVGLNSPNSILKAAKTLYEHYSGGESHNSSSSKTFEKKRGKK
Nature of the assay: Mps-1 kinase assay (TR-FRET). The format is biochemical. The following applies: Mps-1 TR-FRET kinase assay; avg; read-out: Mps1 avg (IC50 [mol/l]). The gist of the method: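 GST-tagged full-length recombinant human Mps-1 (~0.5 nM) pre-incubated 15 min with compound, then reacted 60 min at 22 °C with 10 μM ATP and 1 μM biotinylated peptide in Hepes pH 7.7 buffer. EDTA-stopped; TR-FRET (Eu anti-phospho-Ser/Thr to SA-XLent) 665/620 nm ratio normalised to no-inhibitor and no-enzyme controls.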
(In general: Time-resolved FRET reads energy transfer from a long-lived donor to a nearby acceptor.)
Regarding `Cc1nsc(Nc2ccc(C#N)cn2)c1C(=O)Nc1ccc(OC2CCNCC2)nc1` [Example 28, 5-[(5-Cyanopyridin-2-yl)amino]-3-methyl-N-[6-(piperidin-4-yloxy)pyridin-3-yl]-1,2-thiazole-4-carboxannide], the IC50 is at least 20 µM.
Consider `Cc1nsc(Nc2ccc(C#N)cn2)c1C(=O)Nc1ccc(OC2CCN(CCF)CC2)nc1` [Example 29, 5-[(5-Cyanopyridin-2-yl)amino]-N-(6-{[1-(2-fluoroethyl)piperidin-4-yl]oxy}pyridin-3-yl)-3-methyl-1,2-thiazole-4-carboxamide], for which the IC50 is at least 20 µM.
For `Cc1nsc(Nc2ccc(C#N)cn2)c1C(=O)Nc1ccc(OC2CCN(CC(F)(F)F)CC2)nc1` [Example 30, 5-[(5-Cyanopyridin-2-yl)amino]-3-methyl-N-(6-{[1-(2,2,2-trifluoroethyl)piperidin-4-yl]oxy}pyridin-3-yl)-1,2-thiazole-4-carboxamide] the value was at least 20 µM; for `Cc1nsc(Nc2cnc3ccccc3n2)c1C(=O)Nc1ccc(OC2CCCN(C(=O)OC(C)(C)C)C2)nc1` (centres unmarked) [Example 31, tert-Butyl 3-{[5-({[3-methyl-5-(quinoxalin-2-ylamino)-1,2-thiazol-4-yl]carbonyl}-amino)pyridin-2-yl]oxy}piperidine-1-carboxylate], at least 20 µM; for `Cc1nsc(Nc2cnc3ccccc3n2)c1C(=O)Nc1ccc(OC2CCCNC2)nc1` (centres unmarked) [Example 32, 3-Methyl-N-[6-(piperidin-3-yloxy)pyridin-3-yl]-5-(quinoxalin-2-ylamino)-1,2-thiazole-4-carboxannide], 15 µM.
`Cc1nsc(Nc2cnc3ccccc3n2)c1C(=O)Nc1ccc(OC2CCCN(CC(F)F)C2)nc1` (centres unmarked) [Example 33, N-(6-{[1-(2,2-Difluoroethyl)piperidin-3-yl]oxy}pyridin-3-yl)-3-methyl-5-(quinoxalin-2-ylamino)-1,2-thiazole-4-carboxamide]: the IC50 was at least 20 µM.
For `Cc1nsc(Nc2cc(C#N)ccn2)c1C(=O)Nc1ccc(OC2CCCN(C(=O)OC(C)(C)C)C2)nc1` (centres unmarked) [Example 34, tert-Butyl 3({5-[({5-[(4-cyanopyridin-2-yl)amino]-3-methyl-1,2-thiazol-4-yl}-carbonyl)amino]pyridin-2-yl}oxy)piperidine-1-carboxylate] the value was at least 20 µM; for `Cc1nsc(Nc2cnc(C(F)(F)F)cn2)c1C(=O)Nc1ccc(OCCNCCC(F)(F)F)nc1` [Example 323, 3-methyl-5-{[5-(trifluoromethyl)pyrazin-2-yl]amino}-N-(6-{2-[(3,3,3-trifluoropropyl)amino]ethoxy}pyridin-3-yl)-1,2-thiazole-4-carboxamide], at least 20 µM.
For `Cc1nsc(Nc2cnc(C(F)(F)F)cn2)c1C(=O)Nc1ccc(OC2CCN(C(CF)CF)CC2)nc1` [Example 324, N-(6-{[1-(1,3-difluoropropan-2-yl)piperidin-4-yl]oxy}pyridin-3-yl)-3-methyl-5-{[5-(trifluoromethyl)pyrazin-2-yl]amino}-1,2-thiazole-4-carboxamide] the value was at least 20 µM.
For `Cc1nsc(Nc2cnc(C(F)(F)F)cn2)c1C(=O)Nc1ccc(OCC2CCCN(CCF)C2)nc1` (centres unmarked) [Example 325, N-(6-{[1-(2-fluoroethyl)piperidin-3-yl]methoxy}pyridin-3-yl)-3-methyl-5-{[5-(trifluoromethyl)pyrazin-2-yl]amino}-1,2-thiazole-4-carboxamide] the value was at least 20 µM; for `Cc1nsc(Nc2cnc(C(F)(F)F)cn2)c1C(=O)Nc1ccc(OCC2CCCN(CC(F)(F)F)C2)nc1` (centres unmarked) [Example 326, 3-methyl-N-(6-{[1-(2,2,2-trifluoroethyl)piperidin-3-yl]methoxy}pyridin-3-yl)-5-{[5-(trifluoromethyl)pyrazin-2-yl]amino}-1,2-thiazole-4-carboxamide], at least 20 µM; for `Cc1nsc(Nc2cnc(C(F)(F)F)cn2)c1C(=O)Nc1ccc(OCC2CCCN(CC(F)F)C2)nc1` (centres unmarked) [Example 327, N-(6-{[1-(2,2-difluoroethyl)piperidin-3-yl]methoxy}pyridin-3-yl)-3-methyl-5-{[5-(trifluoromethyl)pyrazin-2-yl]amino}-1,2-thiazole-4-carboxamide], at least 20 µM.
Regarding `Cc1nsc(Nc2cnc(C(F)(F)F)cn2)c1C(=O)Nc1ccc(OCC2CCCN(CCC(F)(F)F)C2)nc1` (centres unmarked) [Example 328, 3-methyl-5-{[5-(trifluoromethyl)pyrazin-2-yl]amino}-N-(6-{[1-(3,3,3-trifluoropropyl)piperidin-3-yl]methoxy}pyridin-3-yl)-1,2-thiazole-4-carboxamide], the IC50 was at least 20 µM.
With `Cc1nsc(Nc2cnc(C(F)(F)F)cn2)c1C(=O)Nc1ccc(OC2CCCN(CCF)C2)nc1` (centres unmarked) [Example 329, N-(6-{[1-(2-fluoroethyl)piperidin-3-yl]oxy}pyridin-3-yl)-3-methyl-5-{[5-(trifluoromethyl)pyrazin-2-yl]amino}-1,2-thiazole-4-carboxamide] the figure was at least 20 µM.
For the compound `Cc1nsc(Nc2cnc(C(F)(F)F)cn2)c1C(=O)Nc1ccc(OC2CCCN(CC(F)F)C2)nc1` (centres unmarked) [Example 330, N-(6-{[1-(2,2-difluoroethyl)piperidin-3-yl]oxy}pyridin-3-yl)-3-methyl-5-{[5-(trifluoromethyl)pyrazin-2-yl]amino}-1,2-thiazole-4-carboxamide], the IC50 was at least 20 µM.
In the case of `Cc1nsc(Nc2cnc(C(F)(F)F)cn2)c1C(=O)Nc1ccc(OC2CCCN(CCC(F)(F)F)C2)nc1` (centres unmarked) [Example 332, 3-methyl-5-{[5-(trifluoromethyl)pyrazin-2-yl]amino}-N-(6-{[1-(3,3,3-trifluoropropyl)piperidin-3-yl]oxy}pyridin-3-yl)-1,2-thiazole-4-carboxamide], the IC50 is at least 20 µM.
Take `Cc1nsc(Nc2cnc(C(F)(F)F)cn2)c1C(=O)Nc1ccc(OC2CCCN(C(CF)CF)C2)nc1` (centres unmarked) [Example 333, N-(6-{[1-(1,3-difluoropropan-2-yl)piperidin-3-yl]oxy}pyridin-3-yl)-3-methyl-5-{[5-(trifluoromethyl)pyrazin-2-yl]amino}-1,2-thiazole-4-carboxamide]: the IC50 was at least 20 µM.
With `Cc1nsc(Nc2cnc(C(F)(F)F)cn2)c1C(=O)Nc1ccc(F)c(OCC2CCCN(CC(F)F)C2)c1` (centres unmarked) [Example 334, N-(3-{[1-(2,2-difluoroethyl)piperidin-3-yl]methoxy}-4-fluorophenyl)-3-methyl-5-{[5-(trifluoromethyl)pyrazin-2-yl]amino}-1,2-thiazole-4-carboxamide] the figure was at least 20 µM; with `Cc1nsc(Nc2cnc(C(F)(F)F)cn2)c1C(=O)Nc1ccc(F)c(OCC2CCCN(CCF)C2)c1` (centres unmarked) [Example 336, N-(4-fluoro-3-{[1-(2-fluoroethyl)piperidin-3-yl]methoxy}phenyl)-3-methyl-5-{[5-(trifluoromethyl)pyrazin-2-yl]amino}-1,2-thiazole-4-carboxamide], at least 20 µM.
On to `Cc1nsc(Nc2cnc(C(F)(F)F)cn2)c1C(=O)Nc1ccc(F)c(OCC2CCCN(CC(F)(F)F)C2)c1` (centres unmarked) [Example 337, N-(4-fluoro-3-{[1-(2,2,2-trifluoroethyl)piperidin-3-yl]methoxy}phenyl)-3-methyl-5-{[5-(trifluoromethyl)pyrazin-2-yl]amino}-1,2-thiazole-4-carboxamide], for which the IC50 is at least 20 µM.
